Results as given in patent publication US12673041B2, “4-aminobut-2-enamide derivatives and salt thereof” (TAIHO PHARMACEUTICAL CO., LTD., priority 2019, dated 2026).
Where two headings read alike, the source gives them in different places.

Columns and labels:
[1] = test system: MIA PaCa-2 cells; experiment: Growth inhibition activity on KRAS-G12C mutant cell line (MIA PaCa-2); assay type: cell-based; settings: Homo sapiens, 72 h; MIA PaCa-2, 3-day culture, CellTiter-Glo 3D
Description: MIA PaCa-2 cells (given by Sumitomo Dainippon Pharma Co., Ltd.), which are a KRAS-G12C mutant human pancreas cancer cell line, were suspended in a 10% fetal bovine serum-containing RPMI1640 medium (manufactured by Fujifilm Wako Pure Chemical Corporation.). The cell suspension was seeded into each well of a 384-well U bottom microplate and cultured in an incubator containing 5% CO2 gas at 37° C. for 1 day. The compounds obtained in the “Preparation of Compounds” section were used as test compounds and were dissolved in DMSO, respectively, and each test compound was diluted with DMSO to give a concentration 500 times the final concentration. The resultant solution of the test compound in DMSO was diluted with the medium used for suspending cells and added to each well of the cell-culture plate to give a DMSO final concentration of 0.2%, followed by culture in an incubator containing 5% CO2 gas at 37° C. for another 3 days. The cell count after 3-day culture in the presence of the test compound was measured using CellTiter-Glo 3D Reagent (manufactured by Promega Corporation). All wells were added with CellTiter-Glo 3D Reagent and mixed for 10 minutes. 30 minutes after mixing, luminescence was measured by a plate reader. The growth inhibition rate was calculated from the following equation, and the concentration of the test compound at which 50% inhibition was achieved (IC50 (nM)) was determined. […] Growth Inhibition Rate (%)=(C−T)/(C)×100 • T: the emission intensity in a well into which a test compound was added. • C: the emission intensity in a well into which a test compound was not added.

[2] = target: T1, GMPPNP-bound KRAS G12C protein and cRAF RAS-binding domain (cRAF-RBD) (Homo sapiens, UniProt P01116, G12C); experiment: Inhibitory activity on interaction between KRAS G12C and cRAF (Alpha technology); assay type: biochemical; settings: then cRAF-RBD, Alpha signal
T1 construct: made in house; host or cells: E. coli
Method in brief: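 GMPPNP-loaded His-KRAS G12C (aa 1-169) preincubated 1 h at 25 °C with compound (pH 7.5 Tris, 1 mM MgCl2, TCEP, Tween 20), then cRAF-RBD (aa 50-132) and Alpha reagents added for 1.5 h at RT. Inhibition scaled between DMSO (0%) and GDP-bound KRAS (100%); IC50 by curve fitting.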

[3] = target: Gppcp-bound recombinant K-Ras4B G12C mutant protein (amino acids 1-169, C51S/C80L/C118S) (Homo sapiens, UniProt P01116, C118S/C51S/C80L/G12C); experiment: KRASG12C binding assay (LC-MS compound binding rate); settings: test compound final concentration 0.5 μM, 25° C., 1 hour
Method in brief: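 Gppcp-bound K-Ras4B G12C (aa 1-169, C51S/C80L/C118S) at 50 nM in 1×TBS, 0.1 mM TCEP, 0.25 mM MgCl2, 50 μM Gppcp was incubated 1 hour at 25° C with compound at 0.5 μM final. Intact-protein LC-MS gave binding rate as single-adduct signal over total KRAS signal, graded A (≥80%) to E (<20%).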

[4] = GMPPNP-bound KRAS G12C incubated with compound at 25° C. for 1 hour, read-out: IC50

Compound | IC50 [1] | IC50 [2, 4] | binding rate [3] | IC50 ([2]; IC50, GMPPNP-bound KRAS G12C incubated with compound at 25° C. for 1 hour)
CO[C@H]1CC[C@H](NC/C=C/C(=O)Nc2ccc(C(=O)c3cnc4c(-c5cc6ncn(C)c6cc5C)cccn34)cc2C#N)CC1 [Example 9, (E)-N-(2-cyano-4-(8-(1,6-dimethyl-1H-benzo[d]imidazol-5-yl)imidazo[1,2-a]pyridine-3-carbonyl)phenyl)-4-(((1r,4r)-4-methoxycyclohexyl)amino)but-2-enamide] | 100 nM | 66 nM | B (a binding rate of 60% or more and less than 80% is rated “B”) | 
CCc1nc2cc(-c3cccc4c3CCN4C(=O)c3ccc(NC(=O)/C=C/CN[C@H]4CC[C@H](N5CCCC5)CC4)c(C#N)c3)c(C(F)(F)F)cc2n1C [Example 29, (E)-N-(2-cyano-4-(4-(2-ethyl-1-methyl-6-(trifluoromethyl)-1H-benzo[d]imidazol-5-yl)indoline-1-carbonyl)phenyl)-4-(((1r,4r)-4-(pyrrolidin-1-yl)cyclohexyl)amino)but-2-enamide] | 410 nM | 95 nM | A (A binding rate of 80% or more is rated “A”) | 
CCc1nc2cc(-c3cccc4c3CCN4C(=O)c3ccc(NC(=O)/C=C/CNC4CCN(C(C)C)CC4)c(C#N)c3)c(C(F)(F)F)cc2n1C [Example 30, (E)-N-(2-cyano-4-(4-(2-ethyl-1-methyl-6-(trifluoromethyl)-1H-benzo[d]imidazol-5-yl)indoline-1-carbonyl)phenyl)-4-((1-isopropylpiperidin-4-yl)amino)but-2-enamide] | 370 nM | 75 nM | A (A binding rate of 80% or more is rated “A”) | 
CO[C@H]1CC[C@H](NC/C=C/C(=O)Nc2ccc(C(=O)c3ccc4c(-c5cc6nc7n(c6cc5C(F)(F)F)CCC7)cccn34)cc2C#N)CC1 [Example 31, (E)-N-(2-cyano-4-(8-(7-(trifluoromethyl)-2,3-dihydro-1H-benzo[d]pyrrolo[1,2-a]imidazol-6-yl)indolizine-3-carbonyl)phenyl)-4-(((1r,4r)-4-methoxycyclohexyl)amino)but-2-enamide] | 86 nM | 26 nM | A (A binding rate of 80% or more is rated “A”) | 
CCc1cc2c(cc1-c1cccc(NC(=O)c3ccc(NC(=O)/C=C/CN[C@H]4CC[C@H](OC)CC4)c(C#N)c3)c1)nc1n2CCC1 [Example 32, 3-cyano-N-(3-(7-ethyl-2,3-dihydro-1H-benzo[d]pyrrolo[1,2-a]imidazol-6-yl)phenyl)-4-((E)-4-(((1r,4r)-4-methoxycyclohexyl)amino)but-2-enamido)benzamide] | 310 nM | 27 nM | B (a binding rate of 60% or more and less than 80% is rated “B”) | 
CCc1nc2cc(-c3cccn4c(C(=O)c5ccc(NC(=O)/C=C/CN[C@H]6CC[C@H](OC)CC6)c(C#N)c5)ccc34)c(C(F)(F)F)cc2n1C [Example 33, (E)-N-(2-cyano-4-(8-(2-ethyl-1-methyl-6-(trifluoromethyl)-1H-benzo[d]imidazol-5-yl)indolizine-3-carbonyl)phenyl)-4-(((1r,4r)-4-methoxycyclohexyl)amino)but-2-enamide] | 48 nM | 45 nM | A (A binding rate of 80% or more is rated “A”) | 
CO[C@H]1CC[C@H](NC/C=C/C(=O)Nc2ccc(C(=O)Nc3cccc(-c4cc5nc6n(c5cc4C(F)(F)F)CCC6)n3)cc2C#N)CC1 [Example 34, 3-cyano-4-((E)-4-(((1r,4r)-4-methoxycyclohexyl)amino)but-2-enamido)-N-(6-(7-(trifluoromethyl)-2,3-dihydro-1H-benzo[d]pyrrolo[1,2-a]imidazol-6-yl)pyridin-2-yl)benzamide] | 92 nM | 31 nM | A (A binding rate of 80% or more is rated “A”) | 
CO[C@H]1CC[C@H](NC/C=C/C(=O)Nc2ccc(C(=O)c3c[nH]c4c(-c5cc6nc7n(c6cc5C(F)(F)F)CCC7)cccc34)cc2C#N)CC1 [Example 35, (E)-N-(2-cyano-4-(7-(7-(trifluoromethyl)-2,3-dihydro-1H-benzo[d]pyrrolo[1,2-a]imidazol-6-yl)-1H-indole-3-carbonyl)phenyl)-4-(((1r,4r)-4-methoxycyclohexyl)amino)but-2-enamide] | 39 nM | 19 nM | A (A binding rate of 80% or more is rated “A”) | 
CO[C@H]1CC[C@H](NC/C=C/C(=O)Nc2ccc(C(=O)c3ccc4c(-c5cc6ncn(C)c6cc5C(F)F)cccn34)cc2C#N)CC1 [Example 36, (E)-N-(2-cyano-4-(8-(6-(difluoromethyl)-1-methyl-1H-benzo[d]imidazol-5-yl)indolizine-3-carbonyl)phenyl)-4-(((1r,4r)-4-methoxycyclohexyl)amino)but-2-enamide] | 70 nM | 23 nM | A (A binding rate of 80% or more is rated “A”) | 
CCN(CC)[C@H]1CC[C@H](NC/C=C/C(=O)Nc2ccc(C(=O)Nc3cccc(-c4cc5nc6n(c5cc4C(F)(F)F)CCC6)n3)cc2C#N)CC1 [Example 37, 3-cyano-4-((E)-4-(((1r,4r)-4-(diethylamino)cyclohexyl)amino)but-2-enamido)-N-(6-(7-(trifluoromethyl)-2,3-dihydro-1H-benzo[d]pyrrolo[1,2-a]imidazol-6-yl)pyridin-2-yl)benzamide] | 550 nM | 12 nM | A (A binding rate of 80% or more is rated “A”) | 
CO[C@H]1CC[C@H](NC/C=C/C(=O)Nc2ccc(C(=O)c3cn(C)c4c(-c5cc6ncn(C)c6cc5C(F)(F)F)cccc34)cc2C#N)CC1 [Example 38, (E)-N-(2-cyano-4-(1-methyl-7-(1-methyl-6-(trifluoromethyl)-1H-benzo[d]imidazol-5-yl)-1H-indole-3-carbonyl)phenyl)-4-(((1r,4r)-4-methoxycyclohexyl)amino)but-2-enamide] | 88 nM |  | A (A binding rate of 80% or more is rated “A”) | 67 nM
COc1cccc(Cl)c1-c1cccn2c(C(=O)c3ccc(NC(=O)/C=C/CN[C@H]4CC[C@H](OC)CC4)c(C#N)c3)ccc12 [Example 41, (E)-N-(4-(8-(2-chloro-6-methoxyphenyl)indolizine-3-carbonyl)-2-cyanophenyl)-4-(((1r,4r)-4-methoxycyclohexyl)amino)but-2-enamide] | 370 nM | 85 nM | A (A binding rate of 80% or more is rated “A”) | 
Cn1cnc2cc(-c3cccn4c(C(=O)c5ccc(NC(=O)/C=C/[C@@H]6CCCN6)c(C#N)c5)ccc34)c(C(F)(F)F)cc21 [Example 44, (S,E)-N-(2-cyano-4-(8-(1-methyl-6-(trifluoromethyl)-1H-benzo[d]imidazol-5-yl)indolizine-3-carbonyl)phenyl)-3-(pyrrolidin-2-yl) acrylamide] | 350 nM | 61 nM | A (A binding rate of 80% or more is rated “A”) | 
Cn1cnc2cc(-c3cccn4c(C(=O)c5cc(F)c(NC(=O)/C=C/CNC(C)(C)C)c(F)c5)ccc34)c(C(F)(F)F)cc21 [Example 49, (2E)-4-(tert-Butylamino)-N-(2,6-difluoro-4-{8-[1-methyl-6-(trifluoromethyl)-1H-1,3-benzodiazol-5-yl]indolizine-3-carbonyl}phenyl)but-2-enamide] | 75 nM | 31 nM | A (A binding rate of 80% or more is rated “A”) | 
